Data on twelve compounds can be found in PubChem BioAssay AID624129 (Sanford-Burnham Center for Chemical Genomics, 2012).

Assay in all cases: CXCR6 receptor antagonists, dose response, cell-based, beta-arrestin, DiscoveRx, APJ panel, uHTS hits (AID 624129)
Test [1] addresses Beta-galactosidase (Escherichia coli) (UniProt Q8VNN2). To be noted: CXCR6 beta-arrestin (DiscoveRx) antagonist cell assay, b-galactosidase; for IC50: dose range 1; for pIC50: dose range 1, mean IC50 across replicates.
Test [2] addresses C-X-C chemokine receptor type 6 (Homo sapiens) (UniProt O00574). Particulars: CXCR6 beta-arrestin (DiscoveRx) antagonist cell assay; for inhibition: CXCR6, run 1, dose range 2, at 80 µM (top of the series).
For test [3], the target named is Apelin receptor (Homo sapiens) (UniProt P35414). Particulars: CXCR6 beta-arrestin (DiscoveRx) antagonist cell assay, APJ.
The target of test [4] is C-C chemokine receptor type 6 (Homo sapiens) (UniProt P51684). To be noted: CXCR6 beta-arrestin (DiscoveRx) antagonist cell assay.
Setting [5] is: CXCR6, dose range 1, mean IC50 across replicates.
[6] abbreviates: dose range 1, mean IC50 across replicates.
The mark [7] stands for this setting: CCR6, dose range 1, mean IC50 across replicates.

pIC50: −log10 of the molar value. Calls of active or inactive are those of the source. No rule for the calls is given here. Where only a bound is given, the exact number is not on record here.

Chain of Beta-galactosidase (Escherichia coli) (Q8VNN2 whole entry, looked up): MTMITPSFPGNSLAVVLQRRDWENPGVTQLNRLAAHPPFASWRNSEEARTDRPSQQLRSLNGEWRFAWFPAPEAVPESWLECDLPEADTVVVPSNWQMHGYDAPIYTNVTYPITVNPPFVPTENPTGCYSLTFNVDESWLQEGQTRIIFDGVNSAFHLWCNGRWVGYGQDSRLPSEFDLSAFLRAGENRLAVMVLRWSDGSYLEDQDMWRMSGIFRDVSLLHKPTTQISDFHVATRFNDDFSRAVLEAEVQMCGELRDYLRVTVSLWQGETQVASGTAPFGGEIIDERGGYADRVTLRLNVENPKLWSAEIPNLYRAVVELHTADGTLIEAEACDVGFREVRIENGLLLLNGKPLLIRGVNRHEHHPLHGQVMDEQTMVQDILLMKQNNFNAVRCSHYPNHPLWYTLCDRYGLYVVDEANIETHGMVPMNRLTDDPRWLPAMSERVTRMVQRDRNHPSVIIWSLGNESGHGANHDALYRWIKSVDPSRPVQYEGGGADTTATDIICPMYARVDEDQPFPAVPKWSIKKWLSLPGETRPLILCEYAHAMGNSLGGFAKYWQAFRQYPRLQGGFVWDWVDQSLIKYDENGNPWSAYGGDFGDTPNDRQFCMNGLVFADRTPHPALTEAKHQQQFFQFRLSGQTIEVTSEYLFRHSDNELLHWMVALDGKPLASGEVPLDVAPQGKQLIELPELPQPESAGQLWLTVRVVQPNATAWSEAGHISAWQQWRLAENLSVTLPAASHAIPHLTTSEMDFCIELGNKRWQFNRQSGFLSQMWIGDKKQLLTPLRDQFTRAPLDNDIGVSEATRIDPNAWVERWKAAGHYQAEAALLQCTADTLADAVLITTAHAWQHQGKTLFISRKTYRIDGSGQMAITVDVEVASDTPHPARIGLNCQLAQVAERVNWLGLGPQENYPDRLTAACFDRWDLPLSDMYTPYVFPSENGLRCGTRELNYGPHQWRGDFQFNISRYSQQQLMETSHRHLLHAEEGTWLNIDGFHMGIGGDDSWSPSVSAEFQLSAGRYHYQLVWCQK
Chain of C-X-C chemokine receptor type 6 (Homo sapiens) (O00574 whole entry, looked up): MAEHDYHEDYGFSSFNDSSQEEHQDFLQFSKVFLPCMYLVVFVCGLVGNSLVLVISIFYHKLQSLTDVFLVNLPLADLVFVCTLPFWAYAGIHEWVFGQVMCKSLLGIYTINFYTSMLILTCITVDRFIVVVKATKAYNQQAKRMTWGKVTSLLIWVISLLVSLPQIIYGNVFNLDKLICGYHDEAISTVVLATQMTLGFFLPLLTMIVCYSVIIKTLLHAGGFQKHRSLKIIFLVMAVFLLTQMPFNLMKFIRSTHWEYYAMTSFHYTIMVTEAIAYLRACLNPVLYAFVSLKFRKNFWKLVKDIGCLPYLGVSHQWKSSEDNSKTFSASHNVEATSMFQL

As a reminder, the IC50 is the concentration that gives 50% inhibition. A word on the pIC50: it is the IC50 on a negative log10 scale, so that one unit is a factor of ten. With `COc1cccc(-n2nc(C#N)c(Cl)cc2=O)c1`, in test [1], the IC50 was > 80 µM (inactive). Also, the pIC50 in test [1] is under 4.10; in test [2] (setting [5]), 4.90; in test [2] (CXCR6, run 1, dose range 2), 5.03; in test [2] (CXCR6, run 2, dose range 1) it was 4.86; in test [2] (CXCR6, run 2, dose range 2), 4.92; in test [3] (dose range 1), 5.10. The pIC50 is 5.14 in test [3] (setting [6]); 5.14 in test [3] (run 2, dose range 1); 5.18 in test [3] (run 3, dose range 1); 5.20 in test [4] (CCR6, dose range 1); 5.02 in test [4] (setting [7]); 4.89 in test [4] (CCR6, run 2, dose range 1). In test [2] (CXCR6, dose range 1), the IC50 entry is “inactive”.

As to `CCOc1cc(Br)c(Br)c(C=Nc2ccc(NC(C)=O)cc2)c1O`, in test [1], the IC50 is > 80 µM (inactive). The pIC50 is under 4.10 in test [1]; 4.70 in test [2] (setting [5]); 5.27 in test [2] (CXCR6, run 1, dose range 2); under 4.10 in test [2] (CXCR6, run 2, dose range 1); 4.85 in test [2] (CXCR6, run 2, dose range 2); 4.34 in test [3] (dose range 1). Moreover, the negative-log IC50 (pIC50) in test [3] (setting [6]) was 4.34; in test [3] (run 2, dose range 1), under 4.10; in test [3] (run 3, dose range 1), under 4.10; in test [4] (setting [7]), 4.39; in test [4] (CCR6, run 2, dose range 1), 4.39. Further, the IC50 result in test [2] (CXCR6, dose range 1) is “inactive”.

Regarding `Oc1cccc2ccc(/C=C/c3c(F)cccc3Cl)nc12`, the IC50 in test [1] was > 80 µM (inactive). For the same compound, the pIC50 was under 4.10 in test [1]; 5.19 in test [2] (CXCR6, dose range 1); 5.27 in test [2] (setting [5]); 5.42 in test [2] (CXCR6, run 1, dose range 2); 5.18 in test [2] (CXCR6, run 2, dose range 1); 5.31 in test [2] (CXCR6, run 2, dose range 2). In addition, the pIC50 was 5.17 in test [3] (dose range 1); 4.81 in test [3] (setting [6]); 4.95 in test [3] (run 2, dose range 1); 4.55 in test [3] (run 3, dose range 1); 5.23 in test [4] (CCR6, dose range 1); 5.24 in test [4] (setting [7]). This compound showed a pIC50 in test [4] (CCR6, run 2, dose range 1) of 5.25.

For the compound `O=C(C#Cc1ccccc1)c1ccco1`, in test [1], the IC50 is > 80 µM (inactive). In addition, the pIC50 in test [1] is under 4.10; in test [2] (CXCR6, dose range 1), 4.93; in test [2] (setting [5]), 5.01; in test [2] (CXCR6, run 1, dose range 2), 5.02; in test [2] (CXCR6, run 2, dose range 1), 5.04; in test [2] (CXCR6, run 2, dose range 2) it was 5.09. In addition, the pIC50 in test [3] (dose range 1) was 4.79; in test [3] (setting [6]), 4.85; in test [3] (run 2, dose range 1) it was 4.88; in test [3] (run 3, dose range 1) it was 4.89; in test [4] (CCR6, dose range 1) it was 5.02; in test [4] (setting [7]), 5.00. Further, in test [4] (CCR6, run 2, dose range 1), the pIC50 was 4.99.

Consider `Cc1ccc2c(Cl)cc(Cl)c(O)c2n1`, for which the IC50 in test [1] was > 80 µM (inactive). The pIC50 in test [1] was under 4.10; in test [2] (CXCR6, dose range 1), 5.36; in test [2] (setting [5]) it was 5.44; in test [2] (CXCR6, run 1, dose range 2), 5.47; in test [2] (CXCR6, run 2, dose range 1), under 4.10; in test [2] (CXCR6, run 2, dose range 2), 5.53. Besides, the pIC50 is 5.55 in test [3] (dose range 1); 5.30 in test [3] (setting [6]); 5.28 in test [3] (run 2, dose range 1); 5.15 in test [3] (run 3, dose range 1); 5.47 in test [4] (CCR6, dose range 1); 5.45 in test [4] (setting [7]). In addition, in test [4] (CCR6, run 2, dose range 1), the pIC50 is 5.42.

The term inhibition denotes the relative decrease from the control value, in per cent. A higher inhibition goes with a response far below the control. Consider `CS(=O)(=O)c1sc(C#N)c2c1C(=O)CC(c1ccccc1)C2` (stereo not given), for which the IC50 in test [1] was > 80 µM (inactive). Moreover, the pIC50 is under 4.10 in test [1]; 4.34 in test [2] (setting [5]); 4.49 in test [2] (CXCR6, run 2, dose range 1); 4.16 in test [3] (dose range 1); 4.16 in test [3] (setting [6]); under 4.10 in test [3] (run 2, dose range 1). The pIC50 in test [3] (run 3, dose range 1) was under 4.10; in test [4] (CCR6, dose range 1), 4.56; in test [4] (setting [7]), 4.42; in test [4] (CCR6, run 2, dose range 1), 4.31. In test [2] (CXCR6, dose range 1), the IC50 entry is “inactive”. In addition, the inhibition in test [2] is 73.2%.

Take `O=C(CN1CCN(S(=O)(=O)c2ccc(Br)cc2)CC1)Nc1ccc2c(c1)OCO2`: the IC50 in test [1] is > 80 µM (inactive). Moreover, the pIC50 in test [1] was under 4.10; in test [2] (setting [5]), 4.68; in test [2] (CXCR6, run 2, dose range 1), 4.72; in test [3] (dose range 1), 4.66; in test [3] (setting [6]), 4.61; in test [3] (run 2, dose range 1) it was 4.56. In addition, the pIC50 in test [3] (run 3, dose range 1) is under 4.10; in test [4] (CCR6, dose range 1), 4.68; in test [4] (setting [7]), 4.69; in test [4] (CCR6, run 2, dose range 1), 4.69. In test [2] (CXCR6, dose range 1), the IC50 result was “inactive”. In test [2], this compound displayed an inhibition of 100%.

Turning to `C=C1C(=O)OC2C1CCC(C)=C1C(=O)C3OC3(C)C12` (stereo not given), in test [1], the IC50 is > 80 µM (inactive). Also, the pIC50 in test [1] was under 4.10; in test [2] (CXCR6, dose range 1), 4.90; in test [2] (setting [5]), 4.99; in test [2] (CXCR6, run 1, dose range 2) it was 5.00; in test [2] (CXCR6, run 2, dose range 1), 5.01; in test [2] (CXCR6, run 2, dose range 2) it was 5.05. In addition, the pIC50 in test [3] (dose range 1) is 4.96; in test [3] (setting [6]) it was 4.96; in test [3] (run 2, dose range 1) it was 4.95; in test [3] (run 3, dose range 1), 4.97; in test [4] (CCR6, dose range 1) it was 5.19; in test [4] (setting [7]) it was 5.16. Besides, the pIC50 in test [4] (CCR6, run 2, dose range 1) was 5.14.

For `C/C(=N/NC(=O)c1ccc(C(C)(C)C)cc1)c1ccccn1`, the IC50 in test [1] was > 80 µM (inactive). Further, the pIC50 is under 4.10 in test [1]; 5.88 in test [2] (CXCR6, dose range 1); 5.93 in test [2] (setting [5]); 6.05 in test [2] (CXCR6, run 1, dose range 2); 5.75 in test [2] (CXCR6, run 2, dose range 1); 6.14 in test [2] (CXCR6, run 2, dose range 2). For the same compound, the pIC50 is 5.95 in test [3] (dose range 1); 5.85 in test [3] (setting [6]); 5.78 in test [3] (run 2, dose range 1); 5.84 in test [3] (run 3, dose range 1); 5.90 in test [4] (CCR6, dose range 1); 5.82 in test [4] (setting [7]). In test [4] (CCR6, run 2, dose range 1), the pIC50 was 5.74.

On to `N#CC(C#N)=C1C=CC=CN1/C(=C\c1ccco1)C(=O)c1ccccc1`, for which the IC50 in test [1] was > 80 µM (inactive). Further, the pIC50 was under 4.10 in test [1]; 5.45 in test [2] (CXCR6, dose range 1); 5.43 in test [2] (setting [5]); 5.40 in test [2] (CXCR6, run 1, dose range 2); 5.44 in test [2] (CXCR6, run 2, dose range 1); 5.42 in test [2] (CXCR6, run 2, dose range 2). Besides, the pIC50 in test [3] (dose range 1) is 5.32; in test [3] (setting [6]) it was 5.41; in test [3] (run 2, dose range 1) it was 5.49; in test [3] (run 3, dose range 1), 5.43; in test [4] (CCR6, dose range 1) it was 5.54; in test [4] (setting [7]), 5.53. For the same compound, in test [4] (CCR6, run 2, dose range 1), the pIC50 was 5.52.

In the case of `CCCC(=O)OCCNc1cc(Sc2nc3ccccc3[nH]2)c2nonc2c1[N+](=O)[O-]`, in test [1], the IC50 result was “inactive”. Besides, the pIC50 in test [1] is 4.30; in test [2] (CXCR6, dose range 1), 5.23; in test [2] (setting [5]) it was 5.17; in test [2] (CXCR6, run 1, dose range 2), 5.12; in test [2] (CXCR6, run 2, dose range 1), 5.20; in test [2] (CXCR6, run 2, dose range 2) it was 5.15. Also, the pIC50 is 4.91 in test [3] (dose range 1); 5.02 in test [3] (setting [6]); 5.23 in test [3] (run 2, dose range 1); 4.99 in test [3] (run 3, dose range 1); 5.28 in test [4] (CCR6, dose range 1); 5.26 in test [4] (setting [7]). In addition, in test [4] (CCR6, run 2, dose range 1), the pIC50 is 5.23.

For the compound `CCCCOc1ccc(C(=O)NNC(=S)NC(=O)CC)cc1`, the IC50 in test [1] was > 80 µM (inactive). For the same compound, the pIC50 is under 4.10 in test [1]; 5.10 in test [2] (CXCR6, dose range 1); 4.98 in test [2] (setting [5]); 5.13 in test [2] (CXCR6, run 1, dose range 2); 4.80 in test [2] (CXCR6, run 2, dose range 1); 5.00 in test [2] (CXCR6, run 2, dose range 2). Besides, the pIC50 is 5.06 in test [3] (dose range 1); 4.81 in test [3] (setting [6]); 4.98 in test [3] (run 2, dose range 1); 4.57 in test [3] (run 3, dose range 1); 5.12 in test [4] (CCR6, dose range 1); 5.08 in test [4] (setting [7]). The same compound had a pIC50 in test [4] (CCR6, run 2, dose range 1) of 5.04.
